Test results as given in PubChem BioAssay (NCI).
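GI50: concentration for 50% inhibition of growth. Definition used: TGI = concentration required for complete inhibition of growth.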

Tests used:
Test in all cases: NCI anticancer screen, dose series, 384-well format
SNB-19 CNS = tested on: SNB-19 CNS
ACHN renal = tested on: ACHN renal
786-0 renal = tested on: 786-0 renal
SK-MEL-28 melanoma = tested on: SK-MEL-28 melanoma
NCI/ADR-RES ovarian = tested on: NCI/ADR-RES ovarian
MCF7 breast = tested on: MCF7 breast
SF-295 CNS = tested on: SF-295 CNS
RXF 393 renal = tested on: RXF 393 renal
HCT-116 colon = tested on: HCT-116 colon
UACC-62 melanoma = tested on: UACC-62 melanoma
SF-539 CNS = tested on: SF-539 CNS
UACC-257 melanoma = tested on: UACC-257 melanoma
DU-145 prostate = tested on: DU-145 prostate
LOX IMVI melanoma = tested on: LOX IMVI melanoma
CAKI-1 renal = tested on: CAKI-1 renal
NCI-H23 lung = tested on: NCI-H23 lung
OVCAR-3 ovarian = tested on: OVCAR-3 ovarian
SK-MEL-2 melanoma = tested on: SK-MEL-2 melanoma
T-47D breast = tested on: T-47D breast
SK-MEL-5 melanoma = tested on: SK-MEL-5 melanoma
KM12 colon = tested on: KM12 colon
SK-OV-3 ovarian = tested on: SK-OV-3 ovarian
A498 renal = tested on: A498 renal
K-562 leukemia = tested on: K-562 leukemia
HCT-15 colon = tested on: HCT-15 colon
PC-3 prostate = tested on: PC-3 prostate
SR leukemia = tested on: SR leukemia
NCI-H460 NSCLC = tested on: NCI-H460 NSCLC
NCI-H522 lung = tested on: NCI-H522 lung
HOP-92 NSCLC = tested on: HOP-92 NSCLC
NCI-H322M lung = tested on: NCI-H322M lung
HT29 colon = tested on: HT29 colon
OVCAR-8 ovarian = tested on: OVCAR-8 ovarian
M14 melanoma = tested on: M14 melanoma
CCRF-CEM leukemia = tested on: CCRF-CEM leukemia
SW-620 colon = tested on: SW-620 colon
UO-31 renal = tested on: UO-31 renal
COLO 205 colon = tested on: COLO 205 colon
NCI-H226 lung = tested on: NCI-H226 lung
A549 NSCLC = tested on: A549 NSCLC
OVCAR-4 ovarian = tested on: OVCAR-4 ovarian
HL-60(TB) leukemia = tested on: HL-60(TB) leukemia
HOP-62 NSCLC = tested on: HOP-62 NSCLC
MOLT-4 leukemia = tested on: MOLT-4 leukemia
IGROV1 ovarian = tested on: IGROV1 ovarian
RPMI-8226 leukemia = tested on: RPMI-8226 leukemia
SN12C renal = tested on: SN12C renal
OVCAR-5 ovarian = tested on: OVCAR-5 ovarian
HCC-2998 colon = tested on: HCC-2998 colon
TK-10 renal = tested on: TK-10 renal
MALME-3M melanoma = tested on: MALME-3M melanoma
SF-268 CNS = tested on: SF-268 CNS
U251 glioblastoma = tested on: U251 glioblastoma
MDA-MB-468 breast = tested on: MDA-MB-468 breast
MDA-MB-435 melanoma = tested on: MDA-MB-435 melanoma

## CC[C@H](NC(=O)[C@H](C)NC)C(=O)N1C[C@@H](O)C[C@H]1Cc1c(-c2[nH]c3cc(F)ccc3c2C[C@@H]2C[C@H](O)CN2C(=O)[C@H](CC)NC(=O)[C@H](C)NC)[nH]c2cc(F)ccc12
SNB-19 CNS
  GI50: > 100 µM
  TGI: > 100 µM
ACHN renal
  GI50: > 100 µM
  TGI: > 100 µM
786-0 renal
  GI50: > 100 µM
  TGI: > 100 µM
SK-MEL-28 melanoma
  GI50: 86.3 µM
  TGI: > 100 µM
NCI/ADR-RES ovarian
  GI50: > 100 µM
  TGI: > 100 µM
MCF7 breast
  GI50: 15.1 µM
  TGI: 31.4 µM
SF-295 CNS
  GI50: 82 µM
  TGI: > 100 µM
RXF 393 renal
  GI50: < 0.01 µM
  TGI: 0.0829 µM
HCT-116 colon
  GI50: 35 µM
  TGI: > 100 µM
UACC-62 melanoma
  GI50: > 100 µM
  TGI: > 100 µM
SF-539 CNS
  GI50: 14.6 µM
  TGI: 32.5 µM
UACC-257 melanoma
  GI50: 20 µM
  TGI: 69.3 µM
DU-145 prostate
  GI50: 24.2 µM
  TGI: > 100 µM
LOX IMVI melanoma
  GI50: 20.1 µM
  TGI: 35.9 µM
CAKI-1 renal
  GI50: > 100 µM
  TGI: > 100 µM
NCI-H23 lung
  GI50: 0.0611 µM
  TGI: 13.1 µM
OVCAR-3 ovarian
  GI50: 17.9 µM
  TGI: > 100 µM
SK-MEL-2 melanoma
  GI50: < 0.01 µM
  TGI: < 0.01 µM
T-47D breast
  GI50: > 100 µM
  TGI: > 100 µM
SK-MEL-5 melanoma
  GI50: 0.112 µM
  TGI: 0.438 µM
KM12 colon
  GI50: 23.8 µM
  TGI: 74.5 µM
SK-OV-3 ovarian
  GI50: < 0.01 µM
  TGI: < 0.01 µM
A498 renal
  GI50: > 100 µM
  TGI: > 100 µM
K-562 leukemia
  GI50: 21.9 µM
  TGI: 50.7 µM
HCT-15 colon
  GI50: > 100 µM
  TGI: > 100 µM
PC-3 prostate
  GI50: 63 µM
  TGI: > 100 µM
SR leukemia
  GI50: 3.4 µM
  TGI: 19.5 µM
NCI-H460 NSCLC
  GI50: 18 µM
  TGI: 38.1 µM
NCI-H522 lung
  GI50: 0.0544 µM
  TGI: 12.9 µM
HOP-92 NSCLC
  GI50: 0.785 µM
  TGI: 13.5 µM
NCI-H322M lung
  GI50: > 100 µM
  TGI: > 100 µM
HT29 colon
  GI50: 16.4 µM
  TGI: 39.8 µM
OVCAR-8 ovarian
  GI50: 17 µM
  TGI: > 100 µM
M14 melanoma
  GI50: > 100 µM
  TGI: > 100 µM
CCRF-CEM leukemia
  GI50: 0.028 µM
  TGI: 16.8 µM
SW-620 colon
  GI50: 57 µM
  TGI: > 100 µM
UO-31 renal
  GI50: > 100 µM
  TGI: > 100 µM
COLO 205 colon
  GI50: 37 µM
  TGI: > 100 µM
NCI-H226 lung
  GI50: > 100 µM
  TGI: > 100 µM
A549 NSCLC
  GI50: > 100 µM
  TGI: > 100 µM
OVCAR-4 ovarian
  GI50: < 0.01 µM
  TGI: < 0.01 µM
HL-60(TB) leukemia
  GI50: < 0.01 µM
  TGI: < 0.01 µM
HOP-62 NSCLC
  GI50: 0.555 µM
  TGI: 8.66 µM
MOLT-4 leukemia
  GI50: 16.4 µM
  TGI: 30.2 µM
IGROV1 ovarian
  GI50: > 100 µM
  TGI: > 100 µM
RPMI-8226 leukemia
  GI50: 0.102 µM
  TGI: 0.896 µM
SN12C renal
  GI50: > 100 µM
  TGI: > 100 µM
OVCAR-5 ovarian
  GI50: > 100 µM
  TGI: > 100 µM
HCC-2998 colon
  GI50: 16.6 µM
  TGI: 49.8 µM
TK-10 renal
  GI50: > 100 µM
  TGI: > 100 µM
MALME-3M melanoma
  GI50: 0.0143 µM
  TGI: 0.132 µM
SF-268 CNS
  GI50: 28.1 µM
  TGI: 90.6 µM
U251 glioblastoma
  GI50: 18 µM
  TGI: 35.7 µM
MDA-MB-468 breast
  GI50: < 0.01 µM
  TGI: 0.637 µM
MDA-MB-435 melanoma
  GI50: 0.0982 µM
  TGI: > 100 µM
